Source: the supplement of paper PMC11061612

How the values were obtained:
Assay in all cases: Bliss excess, mean over the matrix (fraction); higher = more synergy
A2058 (Melanoma) = test system: A2058 (Melanoma)
Outline: (§1)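 Cell lines grown in DMEM/F12 or RPMI with 10% FBS were plated in 1536-well plates and held 24 hours at 37°C, 5% CO2 before 72 hours of exposure to two-drug dose matrices, with DMSO typically at 0.2%. CellTiter-Glo 2.0 luminescence gave viability, which was converted to inhibition. Vehicle wells were set to 0 and blank wells to 1. Combination Emax is the second-highest inhibition in the matrix, and Bliss excess is the observed combination effect minus the expected EA + EB − EA·EB, where EA and EB are the single-agent effects.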

[1] = test system: CAL-62 (Thyroid Gland Carcinoma)
Outline: as §1

[2] = test system: FADU (Head and Neck Carcinoma)
Outline: as §1

[3] = test system: HCT-15 (Colorectal Carcinoma)
Outline: as §1

[4] = test system: KE-37 (T-Lymphoblastic Leukemia)
Outline: as §1

[5] = test system: L-1236 (Hodgkin's Lymphoma)
Outline: as §1

[6] = test system: LK-2 (Squamous Cell Lung Carcinoma)
Outline: as §1

[7] = test system: LXF-289 (Lung Adenocarcinoma)
Outline: as §1

[8] = test system: NCI-H446 (Small Cell Lung Carcinoma)
Outline: as §1

[9] = test system: OPM-2 (Plasma Cell Myeloma)
Outline: as §1

[10] = test system: OVMIU (Ovarian Carcinoma)
Outline: as §1

[11] = test system: PC-3_[JPC-3] (Lung Adenocarcinoma)
Outline: as §1

[12] = test system: PSN1 (Pancreatic Carcinoma)
Outline: as §1

[13] = test system: REH (B-Lymphoblastic Leukemia)
Outline: as §1

SF268 (Low Grade Glioma) = test system: SF268 (Low Grade Glioma)
Outline: as §1

[14] = test system: SHP-77 (Small Cell Lung Carcinoma)
Outline: as §1

[15] = test system: SK-PN-DW (Other Solid Carcinomas)
Outline: as §1

[16] = test system: TE-8 (Esophageal Squamous Cell Carcinoma)
Outline: as §1

WM278 (Melanoma) = test system: WM278 (Melanoma)
Outline: as §1

WM793B (Melanoma) = test system: WM793B (Melanoma)
Outline: as §1

Structure (SMILES) | Bliss excess (A2058 (Melanoma)) | Bliss excess [1] | Bliss excess [2] | Bliss excess [3] | Bliss excess [4] | Bliss excess [5] | Bliss excess [6] | Bliss excess [7] | Bliss excess [8] | Bliss excess [9] | Bliss excess [10] | Bliss excess [11] | Bliss excess [12] | Bliss excess [13] | Bliss excess (SF268 (Low Grade Glioma)) | Bliss excess [14] | Bliss excess [15] | Bliss excess [16] | Bliss excess (WM278 (Melanoma)) | Bliss excess (WM793B (Melanoma))
C[C@@H](c1ccc2nccn2c1)n1nnc2ncc(-c3cnn(C)c3)nc21 [Savolitinib] + Cc1c2c(nn1C)CSCc1cc(n(C)n1)CSc1cc(c3ccccc3c1)OCCCc1c(C(=O)O)n(C)c3c-2c(Cl)ccc13 [AZD5991] (first compound max 1 µM, 7x7, partner max 1 µM) | -0.0043 | -0.022 | -0.0687 | 0.0013 | -0.0335 | -0.0017 | 0.007 | 0.0178 | 0.0471 | -0.0413 | -0.0415 | -0.0216 | -0.0182 | -0.0369 | -0.0595 | -0.0662 | -0.0656 | -0.0142 | -0.0386 | -0.0658
Cn1cnc2c(F)c(Nc3ccc(Br)cc3Cl)c(C(=O)NOCCO)cc21 [Selumetinib] + C=CCn1c(=O)c2cnc(Nc3ccc(N4CCN(C)CC4)cc3)nc2n1-c1cccc(C(C)(C)O)n1 [AZD1775] (first compound max 10 µM, partner max 1 µM) | -0.029 | 0.0273 | -0.0284 | -0.0198 | 0.0083 | -0.0131 | -0.0356 | -0.0547 | -0.0441 | -0.0124 | -0.0888 | -0.0332 | -0.0321 | -0.0424 | -0.125 | 0.0141 | 0.0095 | 0.0076 | -0.0183 | 0.004
Cn1cnc2c(F)c(Nc3ccc(Br)cc3Cl)c(C(=O)NOCCO)cc21 [Selumetinib] + CC(C)n1c(=O)n(C)c2cnc3cc(F)c(-c4ccc(OCCCN5CCCCC5)nc4)cc3c21 [AZD1390] (first compound max 10 µM, 7x7, partner max 0.3 µM) | -0.0155 | -0.0319 | -0.004 | -0.0001 | 0.0255 | 0.0284 | 0.007 | -0.0312 | -0.0469 | -0.0153 | -0.0444 | -0.0445 | -0.0639 | -0.0323 | -0.0693 | -0.0038 | -0.0289 | 0.0186 | -0.0352 | -0.0211
Cn1cnc2c(F)c(Nc3ccc(Br)cc3Cl)c(C(=O)NOCCO)cc21 [Selumetinib] + CCN(CCO)CCCOc1ccc2c(Nc3cc(CC(=O)Nc4cccc(F)c4)[nH]n3)ncnc2c1 [AZD2811] (first compound max 10 µM, 7x7, partner max 1 µM) | 0.0945 | 0.0427 | -0.026 | 0.0193 | -0.0047 | 0.0086 | -0.0937 | 0.0253 | -0.0069 | 0.0243 | -0.038 | -0.0748 | -0.0501 | -0.0464 | -0.027 | 0.0447 | -0.0744 | -0.0471 | -0.0003 | -0.0465
Cn1cnc2c(F)c(Nc3ccc(Br)cc3Cl)c(C(=O)NOCCO)cc21 [Selumetinib] + C[C@@H]1COCCN1C2=NC(=NC(=C2)C3(CC3)[S@](=N)(=O)C)C4=C5C=CNC5=NC=C4 [AZD6738] (first compound max 10 µM, 7x7, partner max 10 µM) | 0.059 | 0.0142 | 0.0102 | -0.0057 | 0.0087 | -0.041 | 0.0613 | -0.0165 | 0.0036 | -0.0263 | -0.0084 | -0.0671 | -0.0193 | -0.0612 | -0.0382 | 0.0421 | -0.0011 | -0.0289 | 0.0642 | -0.0447
CC(=O)Nc1cccc(-n2c(=O)n(C3CC3)c(=O)c3c(Nc4ccc(I)cc4F)n(C)c(=O)c(C)c32)c1 [Trametinib] + Cc1nc(-c2cn3c(n2)-c2ccc(-c4cnn(C(C)(C)C(N)=O)c4)cc2OCC3)n(C(C)C)n1 [Taselisib] (first compound max 1 µM, 7x7, partner max 10 µM) | 0.104 | 0.15 | 0.213 | 0.139 | 0.0968 | 0.0881 | 0.0821 | 0.164 | 0.0967 | 0.165 | 0.0474 | 0.166 | 0.0665 | 0.0939 | 0.0152 | 0.107 | -0.0286 | 0.129 | 0.13 | 0.0203
CC1(C)CCC(CN2CCN(c3ccc(C(=O)NS(=O)(=O)c4ccc(NCC5CCOCC5)c([N+](=O)[O-])c4)c(Oc4cnc5[nH]ccc5c4)c3)CC2)=C(c2ccc(Cl)cc2)C1 [Venetoclax] + C1CN(CCC1(C(=O)N[C@@H](CCO)C2=CC=C(C=C2)Cl)N)C3=NC=NC4=C3C=CN4 [Capivasertib] (first compound max 1 µM, 7x7, partner max 3 µM) | -0.0333 | -0.0409 | -0.0382 | -0.0383 | 0.012 | -0.0739 | -0.0122 | -0.0275 | -0.0257 | 0.0534 | -0.112 | -0.0399 | -0.0707 | 0.0111 | -0.0095 | -0.0797 | -0.0892 | -0.0569 | -0.0699 | -0.029
CC1(C)CCC(CN2CCN(c3ccc(C(=O)NS(=O)(=O)c4ccc(NCC5CCOCC5)c([N+](=O)[O-])c4)c(Oc4cnc5[nH]ccc5c4)c3)CC2)=C(c2ccc(Cl)cc2)C1 [Venetoclax] + C=CCn1c(=O)c2cnc(Nc3ccc(N4CCN(C)CC4)cc3)nc2n1-c1cccc(C(C)(C)O)n1 [AZD1775] (first compound max 1 µM, partner max 1 µM) | -0.0886 | 0.0452 | -0.0282 | -0.0265 | 0.0083 | 0.0035 | 0.012 | -0.0515 | -0.029 | 0.0966 | -0.013 | -0.0736 | -0.0553 | 0.0623 | -0.0218 | 0.0141 | 0.0457 | -0.0071 | -0.0413 | 0.0101
CC1(C)CCC(CN2CCN(c3ccc(C(=O)NS(=O)(=O)c4ccc(NCC5CCOCC5)c([N+](=O)[O-])c4)c(Oc4cnc5[nH]ccc5c4)c3)CC2)=C(c2ccc(Cl)cc2)C1 [Venetoclax] + CCN(CCO)CCCOc1ccc2c(Nc3cc(CC(=O)Nc4cccc(F)c4)[nH]n3)ncnc2c1 [AZD2811] (first compound max 1 µM, 7x7, partner max 1 µM) | 0.0655 | 0.0363 | 0.0341 | 0.0051 | -0.0266 | -0.0197 | 0.0197 | -0.0678 | -0.0077 | 0.085 | -0.0851 | -0.095 | -0.0478 | 0.18 | 0.0342 | 0.0432 | -0.0703 | 0.0482 | -0.0119 | 0.0206
CC1(C)CCC(CN2CCN(c3ccc(C(=O)NS(=O)(=O)c4ccc(NCC5CCOCC5)c([N+](=O)[O-])c4)c(Oc4cnc5[nH]ccc5c4)c3)CC2)=C(c2ccc(Cl)cc2)C1 [Venetoclax] + CN(C)CCCOc1ccc(-c2ccc3ncc4c(c3c2)n(C2CCOCC2)c(=O)n4C)cn1 [AZD0156] (first compound max 1 µM, 7x7, partner max 1 µM) | 0.0014 | 0.0063 | 0.0088 | -0.0192 | -0.0036 | -0.0182 | 0.02 | -0.0157 | 0.0143 | 0.0271 | -0.111 | -0.103 | -0.0421 | 0.0037 | 0.0022 | 0.0254 | -0.0437 | -0.0574 | -0.0496 | -0.0499
CC1(C)CCC(CN2CCN(c3ccc(C(=O)NS(=O)(=O)c4ccc(NCC5CCOCC5)c([N+](=O)[O-])c4)c(Oc4cnc5[nH]ccc5c4)c3)CC2)=C(c2ccc(Cl)cc2)C1 [Venetoclax] + COc1cc(Nc2ncc3c(n2)-c2ccc(Cl)cc2C(c2c(F)cccc2OC)=NC3)ccc1C(=O)O [Alisertib] (first compound max 1 µM, 7x7, partner max 10 µM) | -0.0871 | -0.0092 | 0.0252 | -0.0034 | -0.0545 | -0.05 | -0.035 | -0.0953 | -0.0775 | 0.272 | -0.151 | -0.0502 | -0.0219 | 0.22 | 0.0151 | 0.241 | -0.127 | 0.0171 | 0.0416 | -0.0223
CC1(C)CCC(CN2CCN(c3ccc(C(=O)NS(=O)(=O)c4ccc(NCC5CCOCC5)c([N+](=O)[O-])c4)c(Oc4cnc5[nH]ccc5c4)c3)CC2)=C(c2ccc(Cl)cc2)C1 [Venetoclax] + C[C@@H]1COCCN1C2=NC(=NC(=C2)C3(CC3)[S@](=N)(=O)C)C4=C5C=CNC5=NC=C4 [AZD6738] (first compound max 1 µM, 7x7, partner max 10 µM) | -0.0008 | 0.0023 | 0.0467 | -0.0084 | 0.0293 | -0.019 | -0.0205 | -0.0138 | -0.0536 | -0.0462 | -0.111 | -0.0438 | -0.0848 | 0.0493 | -0.0723 | -0.007 | -0.0045 | -0.0603 | -0.0712 | -0.0044
